Data reported in a melting point compilation (Tetko et al.).

Structure (SMILES)	melting point [°C]
N=C(N)C(F)(F)C(F)(F)C(F)(F)F	49 to 51
O=C(O)C#Cc1cc(Br)cc(/C=C/C(=O)O)c1	161
CN1CSC(=S)N(C)C1	106
NC(=O)OCC(Cl)(Cl)Cl	64
CN(CCO)CCO	-21
O=C1CCc2cccc3c2N1CC3	112
CCOP(=O)(OCC)On1nnc2ccccc2c1=O	74
C1CCCCCCCCCC1	-7
Oc1ccc(Nc2ccc(O)cc2)cc1	174
OC1(c2ccc(Cl)c(C(F)(F)F)c2)CCN(CCCC(c2ccc(F)cc2)c2ccc(F)cc2)CC1	106
NCc1ccc(CN2CCOCC2)cc1	54 to 55
O=[N+]([O-])c1ccccc1C=Cc1cc(/C=C/c2ccccc2[N+](=O)[O-])c([N+](=O)[O-])cc1[N+](=O)[O-]	291
Cc1c(C)c(C)c(CO)c(C)c1C	159 to 163
OC1OCCCC1(Cl)Cl (stereo unspecified)	87 to 90
COc1cc2c(c3oc(=O)c4c(c13)CCC4=O)C1C=COC1O2 (stereo unspecified)	268 to 269
C=C(C)CO	-50
CSc1nc2ccccc2c(=O)n1-c1ccccc1	123 to 125
CS(=O)(=O)CC#N	84
CC(C)Nc1cccnc1N1CCN(C(=O)c2cc3cc(NS(C)(=O)=O)ccc3[nH]2)CC1	226
O=[N+]([O-])c1ccc2c(c1)=NC(c1cccc(C3N=c4cc([N+](=O)[O-])ccc4=C3O)c1)C=2O (stereo unspecified)	266
CC(CC1CCCCC1)CC1CCCCC1	0.6
C=C1C(=O)C23C(OC)CC4C5(C)CCCC4(COC5)C2C(O)CC1C3O (stereo unspecified)	288
N#CC1=C(N)Oc2ccc(Cl)cc2C1C(C#N)C#N (stereo unspecified)	155 to 156
CCOC(=O)c1c(Cl)c(Cl)c(Cl)c(Cl)c1C(=O)O	94.5
CCCC(Cn1cncn1)c1ccc(Cl)cc1Cl (stereo unspecified)	60.3
CCCCCCc1ccc(O)cc1	32
CSc1sc(C(N)=S)c2c1C(=O)CCC2	232 to 233

Structure (SMILES)	melting point [°C]
BrC12CC3CC(CC(C3)C1)C2	119
CC(CCC(=O)O)C1CCC2C3C(=O)CC4CC(=O)CCC4(C)C3CC(=O)C12C (stereo unspecified)	237
O=[N+]([O-])c1cccnc1NC1CC1	61 to 63
COC(=O)c1csc2c(C(F)(F)F)cc(Cl)nc12	110 to 111
C=C(C)C(N)=O	110
CC12CCC(O)CC1CCC1C2C(O)CC2(C)C(c3ccc(=O)oc3)CCC12O (stereo unspecified)	254
CC12CCC(O)CC1CCC1C2C(O)CC2(C)C1CCC2(O)C(=O)CO (stereo unspecified)	244
O=C1[C@H]2CC[C@@H]1[C@H]1C=C[C@@H]2O1	97
COCN1CCOCCOCCN(COC)CCOCCOCC1	33 to 38
CCOC(=O)c1cnc2sc(C(F)(F)F)nn2c1=N	198
BrC(Br)C(Br)(Br)Br	56.5
Cc1nc(C2CCN(C(=O)OC(C)(C)C)CC2)sc1CO	150 to 153
ON=CNc1ncccn1	184 to 186
O=C1OC(Cl)c2ccccc21 (stereo unspecified)	60
CC(=CCNc1ncnc2c1ncn2C1OC(CO)C(O)C1O)CO (stereo unspecified)	179 to 180
O=C(O)c1cc2cc(Cl)cc(Cl)c2oc1=O	198 to 200
NC(N)=Nc1nc(CSCCC(N)=NS(N)(=O)=O)cs1	163
CC1(C)C2CCC1(C)C(O)/C2=C\CC(=O)O (stereo unspecified)	51 to 52
N#Cc1ccc(O)c(O)c1	154 to 156
O=C(O)c1c(F)c(F)c(F)c(F)c1[N+](=O)[O-]	134 to 139
Nc1ccc(N=Nc2ccc([N+](=O)[O-])cc2)cc1	215
CC(=O)OC1(C(C)=O)CCC2(C)C(CCC3C4CCC(O)C4(C)CCC32)C1 (stereo unspecified)	193
CC(C)(C)C1=NNC(=O)C1	210
CC12CCC(=O)CC1CCC1C2CCC2(C)C1CCC2(C)O (stereo unspecified)	192
C#CC1(O)CCC2C3CCc4cc(O)ccc4C3CCC21C (stereo unspecified)	141
N#Cc1ccc2c(c1)OCCO2	104 to 106
CC1=C(C(=O)O)CCCO1	119

Continued, values first:

melting point [°C]	Structure (SMILES)
73	Cc1cc(N)c2ncccc2c1
93 to 94	c1ccc(-c2nsc(N3CCNCC3)n2)cc1
64 to 67	Cc1noc(-c2ccccc2CBr)n1
138	CC1CCC(C(C)C)C(OC(=O)C(C(=O)c2ccccc2)C(=O)c2ccccc2)C1 (stereo unspecified)
142	O=C(Nc1ccccc1SSc1ccccc1NC(=O)c1ccccc1)c1ccccc1
161 to 163	O=C(O)c1cccc(N2CCOCC2)c1
16.4	CCCCCCC(=O)c1ccccc1
196	CC(C)(C)N(NC(=O)c1ccccc1)C(=O)c1ccccc1Br
205 to 207	O=[N+]([O-])c1ccc2[nH]ccc2c1
194	NC(=O)C1c2ccccc2CCc2ccccc21
244 to 246	CC1(C)C(C=Cc2cc([N+](=O)[O-])cc([N+](=O)[O-])c2[O-])=[N+](Cc2ccccc2)c2ccccc21
114	CCCCCCCCCCc1ccc(NC(=O)c2ccc(C)cc2)cc1
126	CC(=O)c1ccc(-c2ccc(Br)cc2)cc1
250	O=c1cc(-c2ccc(O)c(O)c2)oc2ccccc12
-71.4	CCC(=O)OCC(C)C
178	N#C/C(=N/Nc1ccccc1)c1nc(-c2ccc(Cl)cc2)cs1
183 to 185	CCOC(=O)c1sc2ncccc2c1N
152	O=C(O)C(Cc1ccc([N+](=O)[O-])cc1)c1ccccc1 (stereo unspecified)
217	CCOC(=O)C1=C(C)NC(=O)NC1c1ccccc1Cl (stereo unspecified)
57	OCCN(CCO)c1ccccc1
45.5	CCN(CC)c1ccc(Cl)cc1
173	O=C1c2ccccc2CC2c3ccccc3CCN12 (stereo unspecified)
174	O=C(O)Cc1ccc(Cl)nc1
< 25	CCN(CC)CCOCc1cc(Br)cc(Br)c1OC

melting point [°C]	Structure (SMILES)
238	O=C(O)c1cc2ccccc2cc1C(=O)O
181	O=C(Cc1ccc(/N=C/c2ccccc2)cc1)c1ccc(/N=C/c2ccccc2)cc1
37 to 38	Cc1ccc(OCCBr)cc1
122	Oc1ccc(OCc2ccccc2)cc1
152	COc1cc(O)c2c(c1)OC(c1ccc(O)cc1)CC2=O (stereo unspecified)
42 to 45	C[Si](C)(C)C#Cc1ccccn1
156	O=C(OC(C(=O)c1ccc2c3c(cccc13)CC2)c1ccccc1)c1ccccc1 (stereo unspecified)
106 to 108	CSc1nn(-c2ccccc2)cc1C#N
38 to 40	CC(=O)c1ccc(Cc2ccccc2)cc1
163	COc1cc(OC)nc(Sc2cccc3c2C(=O)OC3C)n1 (stereo unspecified)
36	COC(=O)CCCCCCCCCCCC(=O)OC
63	CCOC(=O)N1CCNC(c2ccccc2)C1 (stereo unspecified)
63	Cc1nc2cc(-c3ccccc3)ccc2o1
42	C#CCCCCCCCCC(=O)O
150	Cc1c(O)cccc1[N+](=O)[O-]
-31	C=Cc1ccccc1
108	COC(=O)C1(S(=O)(=O)c2ccccc2)CCC1
163 to 168	Cc1ccc(C(N)=S)cc1
233 to 235	N[C@@H](Cc1ccc(O)c([N+](=O)[O-])c1)C(=O)O
84.2	CCCCCCCCCCCCCCCCCCCCCCCC(=O)O
135	O=C(c1ccc(Cl)cc1)c1noc(-c2ccc3ccccc3c2)c1S(=O)(=O)c1ccccc1
301	Cn1c(=O)c(C2=NNC(=O)C2=NNc2nccs2)c(O)c2ccccc21
141	COc1c(C)c2c(c(O)c1CC=C(C)CCC(=O)O)C(=O)OC2
120 to 121	Nc1nsc(SCc2ccccc2)n1

melting point [°C]	Structure (SMILES)
177	Cc1c(NC(=O)C(F)(F)C(F)(F)C(F)(F)C(F)(F)C(F)(F)C(F)(F)C(F)(F)C(F)(F)F)c(=O)n(-c2ccccc2)n1C
45 to 48	Cc1ccc(S(=O)(=O)OCC2CO2)cc1 (stereo unspecified)
66	O=Cc1cc(-c2cccs2)on1
-20	NCc1ccccn1
101 to 103	CSc1cc(-c2ccc(F)cc2)n[nH]1
56.6	CCCCCCCCCCCC(=O)OCCOC(=O)CCCCCCCCCCC
182 to 185	NC(CS(=O)(=O)Cc1ccc(F)cc1)=NO
258 to 260	NNC(=O)C=Cc1ccc(C=CC(=O)NN)cc1
189	Cc1[nH]c2ccc([N+](=O)[O-])cc2c1C
123	COc1cccc(C(=O)O)c1OC
141	N#CC1(c2ccccc2)Cc2ccccc2C(=O)O1 (stereo unspecified)
147	Cc1ccsc1C(=O)O
128	COc1ccc(NN=C2C(=O)OC(C)(C)OC2=O)cc1
81.5	Cc1ccc2ccccc2c1[N+](=O)[O-]
73 to 74	N#Cc1cc([N+](=O)[O-])ccc1F
75 to 77	N#CCc1cccc(CC#N)c1F
189	CCOC(=O)C1=C(C)OC(N)=C(c2nc3ccccc3s2)C1c1ccc(Cl)cc1 (stereo unspecified)
96 to 100	CC(=O)OC[C@H]1O[C@@H](OCc2ccccc2)[C@H](OC(C)=O)[C@@H](OC(C)=O)[C@@H]1OC(C)=O
147	CC(C)(C)c1ccc2cc3ccccc3cc2c1
205	CCCCCC(=O)Cc1cc(O)cc2c1C(=O)Oc1cc(O)c(C(=O)O)c(CCCCC)c1O2
-43	CCCCCCOCCCCCC
108	CC(=O)c1ccc(-c2c(Cl)cc(Cl)cc2Cl)o1
67	CS(=O)(=O)c1ccc(OC(F)(F)F)cc1
197	O=C1c2ccccc2C(=O)N1c1ccc(Cl)cc1
